“Also recorded” adds a separate entry of the source.

The subject of one experiment is panel of seven fluorescent strains.
Experiment: not given
The conditions noted are these: cultures unable to grow on a given carbon source, BSA added.
As to bovine serum albumin [BSA], the “serving as an alternative carbon source (false positive growth)” value is reported as “caused no false positives”.

For a further experiment, the system named is Herbaspirillum frisingense (Hf-GFP). In words: Hf-GFP facilitation screen on kChip (Hf-GFP yield in co-culture with soil isolate compositions, single carbon sources). The conditions noted are these: single carbon source 0.5% w/v, by 72 hours. It counts as cell-based. Here is the method:
Microbial cultures were prepared as described in the “Microbial culture input preparation” section above. The culture medium for H. frisingense revival from a glycerol stock also included the selection antibiotic kanamycin (30 μg/mL). Six carbon sources (galactose, glucose, fructose, raffinose, lactose, sucrose) were prepared as described in the “Carbon source input preparation” section above to a concentration of 2% w/v, which were added 1:1 with MM+0.05% w/v BSA to produce 1×MM+1% w/v carbon source (six unique MM each with one carbon source). A plate of 16 color codes were also prepared in advance at 50 μM total concentration (“kChip input preprocessing” section above).
At the onset of the screen, all cultures were washed three times and resuspended in MM+0.05% w/v BSA (no carbon source) and normalized to an initial OD600=0.08. A “droplet plate” (96-well plate) was prepared whereby each of 16 wells, corresponding to the 16 input conditions of the screen, received the following four elements: (1) 50 μL MM+1% w/v carbon source; (2) 25 μL unique soil isolate at OD600=0.08 (or a no-isolate control or a negative control); (3) 25 μL Hf-GFP at OD600=0.08; and (4) 2 μL 50 μM color code. The two controls, a negative control and a no-isolate control, were in principle the same (just different color codes), with the negative control used to measure Hf-GFP monocultures and the no-isolate used to calculate isolate-mediated differences. The carbon source and color code were mixed in advance, though the cultures were added just before making droplets to load on a kChip.
After emulsification, each 1-nL droplet contained the following: (1) 0.5% w/v carbon source; (2) soil isolate at OD600=0.02 (˜20 cells) (or no-isolate control or negative control); (3) Hf-GFP at OD600=0.02 (˜20 cells); and (4) a set of color code (total concentration of all three fluorescent dyes at 1 μM). Droplets were prepared for each carbon source at a time and loaded onto a k={1:7;19} Chip, i.e. first all sucrose-containing droplets were prepared and loaded onto the first kChip in the screen, then all lactose-containing droplets were prepared and loaded onto the second kChip, and so forth. Because there were only 16 inputs in total, there were no instances where all inputs were unique in k=19 microwells. The instant analysis was focused upon the k=1-7 microwells, and specifically on instances where all droplets within a given microwell were unique. Throughput tradeoffs associated with this number of inputs and k values are discussed below.
After loading droplets, the kChip was imaged to read the color-code of each droplet (“pre-merge” scan) and droplet sets were merged within their corresponding microwells (“Droplet making and kChip loading” section above). The post-merge communities contained the following: (1) 0.5% w/v carbon source; (2) k=1, 2, 3, 4, 5, 6, 7, or 19 soil isolates collectively at OD600=0.02 (or no-isolate control or negative control); (3) Hf-GFP at OD600=0.02; and (4) 1 μM mixed color codes (no longer serving a purpose). […]
With `OC[C@H]1O[C@H](OC[C@H]2O[C@H](O[C@]3(CO)O[C@H](CO)[C@@H](O)[C@@H]3O)[C@H](O)[C@@H](O)[C@@H]2O)[C@H](O)[C@@H](O)[C@H]1O` [raffinose], the “Hf-GFP monoculture growth/yield on the carbon source” value (shortened to “Hf-GFP monoculture growth/yield”) is “low”.

For `O=C[C@H](O)[C@@H](O)[C@@H](O)[C@H](O)CO` [galactose], the “Hf-GFP monoculture growth/yield” value was “high yield”.

Regarding `OC[C@H]1O[C@@H](O[C@H]2[C@H](O)[C@@H](O)C(O)O[C@@H]2CO)[C@H](O)[C@@H](O)[C@H]1O` (stereo partly drawn) [lactose], the “Hf-GFP monoculture growth/yield” value is given as “low”.

On to `OC[C@H]1O[C@@](CO)(O[C@H]2O[C@H](CO)[C@@H](O)[C@H](O)[C@H]2O)[C@@H](O)[C@@H]1O` [sucrose], for which the “Hf-GFP monoculture growth/yield” value is reported as “indistinguishable from background; also recorded: undetectably low”.

On to `O=C(CO)[C@@H](O)[C@H](O)[C@H](O)CO` [fructose], for which the “Hf-GFP monoculture growth/yield” value is listed as “low”.

These data come from US12577526B2, “Massively parallel on-chip construction of synthetic microbial communities” (MASSACHUSETTS INSTITUTE OF TECHNOLOGY, priority 2019, dated 2026).
